What was measured:
[1] = Fluorescence quantum yield and luminescence lifetime (TCSPC) in water; format: physicochemical; details: pure aqueous medium; for τ (luminescence lifetime): excitation 443 nm; for Φf (fluorescence quantum yield): reference Ru(bpy)3Cl2
Text: UV-Vis spectra were obtained by using a Cary 500 scan UV-Vis-NIR spectrometer. Room temperature emission spectrum was obtained using an Edinburgh instrument Xe-900 spectro fluorometer. The fluorescence quantum yields, Φf were estimated by using equation 1 in water medium using the integrated emission intensity of Ru(bpy)3Cl2 (Φf=0.042 in H2O at RT) as a reference. (FIG. 20)
Luminescent lifetimes were obtained using a Horiba TCSPC (Time Correlated Single Photon Counting) system exciting at 443 nm. 10,000 counts were collected for each lifetime measurement and all measurements were performed in triplicate using DAS software to confirm results. The calculation of the luminescent lifetimes was performed by fitting an exponential decay function to each decay plot to extract the lifetime information using DAS6 fluorescence decay analysis software (FIG. 2).

[2] = Partition coefficient (log P), shake-flask method, n-octanol/water; details: for LogP: values of Table 2; for log P: values of text and unnumbered table
Description: Partition coefficients (log P) for these three complexes were evaluated by shake-flask method and these were correlated to the lipophilicity of respective complexes.
n-Octanol saturated water and water saturated octanol was obtained using Millipore water stirred with n-octanol for 24 h before the two layers were separated by centrifugation (3000 rpm, 5 min). The chloride salts of complex 1 and 2 were dissolved in n-octanol saturated water giving concentrations ranging from 0.5 to 3.0 mmol. This was then mixed with water saturated n-octanol in the ratio of 1:1 (v/v). Resulting solvent mixtures were vertexed for 30 min at room temperature, and then were subjected to centrifugation (3000 rpm, 5 min) to get two distinct separate layers. Samples from each layer were obtained using a fine-gauge needle and the absorbance of respective complex in each phase determined using UV-Vis spectroscopy.

live MCF-7 cells = test: CLSM imaging of live cells, co-staining with ER-Tracker Green; format: cell-based; details: live MCF-7, 50 μM, 37° C
Description: In the light of the negligible toxicity towards MCF-7 cells, the application of the above complexes as potential as imaging agents was explored in live MCF-7 cells by incubating the cells separately with 50 μM of 1, 2, and 3 at 37° C.

MCF-7 cell line = test: Cellular uptake and quantification of Ru by MP-AES; format: cell-based; details: MCF-7, 50 μM, 24 h, 37° C
Description: Cellular accumulation studies for complexes 1, 2, and 3 were conducted on the MCF-7 cell line. Briefly, 2.5×10^5-1×10^6 cells were seeded on a petridish; the metal complexes were then added to give final concentrations of 50 μM and allowed a further 24 h of drug exposure at 37° C. After this time, cells were treated with trypsin, counted using haemocytometer, and cells collected were digested overnight in concentrated nitric acid (73%) at 60° C.; Samples were made up to exactly 10 mL using deionized water and the amount of ruthenium taken up by the cells was estimated by MP-AES (Microwave Plasma Atomic Emission Spectroscopy), using an Agilent Technologies instrument (Model No: 4100 MP-AES). The solvent used for all MP-AES experiments was double deionized water (DDW). The concentrations used for the calibration curve were in all cases 0, 5, 7.5, 10 ppm. The isotope detected was ^101Ru; readings were made in duplicate (N2 gas mode).

[3] = tested on: nuclear DNA of fixed MCF-7 cells; test: DNase I / RNase A digest experiments (CLSM); format: cell-based; details: fixed MCF-7 cells pre-treated with DNase I
Description: Further, in order to check the preferential binding of these two reagents to nuclear DNA, deoxyribonuclease (DNase I) and ribonuclease (RNase A) digest experiments were carried out. DNase I is an enzyme that catalyzes the hydrolytic cleavage of phosphodiester linkages in the DNA and RNase A is a type of nuclease that catalyzes the degradation of RNA into smaller components. DAPI was used for control experiments.

calf-thymus DNA (CT-DNA) = test: Isothermal titration calorimetry (ITC) binding to CT-DNA; details: for ΔG / ΔH / −TΔS: Tris-HCl buffer pH=7.4, 25° C; for N [bp]: one set of site binding model
Description: Relative binding affinity of complexes 1, 2, and 3 towards calf-thymus DNA (CT-DNA) were evaluated using isothermal titration calorimetry (ITC) (FIG. 20). Association constants and thermodynamic parameters (Table 4) clearly reveal that the binding affinities for complexes 1 and 2
ITC experiments were performed with the Microcal iTC200. CT-DNA (0.1 mmol) and complexes 1 (5 mmol), 2 (5 mmol) and 3 (5 mmol) were used for these experiments. All titrations were conducted in Tris-HCl buffer (5 mmol Tris and 25 mmol NaCl), pH=7.4 at 25° C. In each titration CT-DNA was loaded into the cell and 1 or 2 or 3 were taken into the syringe. Aliquot of 2 μL of compounds were injected into the cell containing DNA. In each experiment, the raw isotherms were corrected for heat of dilution by subtracting the isotherms representing the compounds injected into the Tris-HCl buffer. The resulting isotherms were fitted with the one set of site binding model provided with Microcal iTC200. (Refer FIG. 21)

[4] = Photostability under continuous irradiation by confocal microscopy; format: physicochemical; details: for reduction of fluorescence intensity upon irradiation: fixed MCF-7, exposure at 442 nm for 300 sec
Text: In yet another embodiment, photostability of these two complexes 1 & 2 compared with that for DAPI dye by using confocal microscopy.

PFA fixed MCF-7 cells = test: CLSM imaging of fixed cells, co-staining with DAPI; format: cell-based; details: fixed MCF-7, excitation 442 nm, emission 620 nm
Description: In another embodiment, co-staining experiments were performed with DAPI, a commonly used commercial nuclear staining agent.
To ensure that DAPI had no influence in internalization of the complexes 1 and 2, identical experiments with fixed MCF-7 cells in absence of DAPI were performed (FIG. 22 c) and a distinct red emission were observed from the nucleus. Luminescence intensity profile plots confirmed that the emission was actually from the nucleus.
MCF-7 and HEK293T cells were cultured in DMEM respectively supplemented with 10% FBS and penicillin/streptomycin. Cell lines were maintained at 37° C. in an atmosphere of 5% CO2 and routinely sub-cultured. For CLSM, cell cultures were grown on 6 well plate with coverslips, after 24 hrs of incubation the cells were treated with solutions of 1 or 2 (20 μM,) in serum containing media and incubated for 2 h. After incubation media was removed and cells were washed with 1×PBS buffer and fixed them using paraformaldehyde and stained for confocal microscopy. Nuclear staining was performed by using DAPI. Olympus Fluoview was used to observe the compound staining Compound was excited at 443 nm and emission was detected at 620 nm wavelength.
DAPI was excited by using a 405 nm diode laser and emission detected with a 420-480 nm long-pass band-filter. (FIG. 14, 15, 16, 17)

fluorescence intensity upon continuous irradiation ([4]; fixed MCF-7, at 359 nm for 300 sec)	Compound	τ (luminescence lifetime) [1] [ns]	Φf (fluorescence quantum yield) [1]	LogP [2]	intracellular localisation of emission in live cells (live MCF-7 cells)	Ru accumulation (MCF-7 cell line) [ppm/10^6 cells]	water solubility (Water solubility)	intracellular fluorescence intensity from the nucleus after DNase I pre-treatment [3]	ΔG (calf-thymus DNA (CT-DNA)) [Kcal/M^−1]	ΔH (calf-thymus DNA (CT-DNA)) [Kcal/M^−1]	−TΔS (calf-thymus DNA (CT-DNA)) [Kcal/M^−1l]	N [bp] (calf-thymus DNA (CT-DNA))	reduction of fluorescence intensity upon irradiation [4] [%]	staining of fixed cells (PFA fixed MCF-7 cells)	log P [2]	extent of cellular uptake (live MCF-7 cells)
–	{bis-(2,2′-bpy)-(1-((4′-methyl-[2,2′-bipyridin]-4-yl)methyl)pyrimidine-2,4(1H,3H)-dione)}ruthenium(II) dichloride [Complex 2]	323	0.050	−1.59 ± 0.09	exactly superimposed with those for ER-Tracker™ Green	2.3	highly water soluble	significantly reduced	−6.00 ± 0.02	1.47 ± 0.02	7.47	0.98 ± 0.01	~20	as efficient as DAPI in staining the nucleus	–	–
–	Cc1ccnc(-c2cc(C)ccn2)c1.F[P-](F)(F)(F)(F)F.F[P-](F)(F)(F)(F)F.[Ru+2].c1ccc(-c2ccccn2)nc1.c1ccc(-c2ccccn2)nc1 [Complex 3, [Ru(bpy)2(L3)]2+, reference compound]	321	0.05	–	did not show any such specificity towards lipid dense regions	0.8	–	–	−4.52 ± 0.25	0.51 ± 0.25	5.03	0.354 ± 0.14	–	non-specific staining of cellular compartments	−1.1	less as compared to the complexes 1 and 2
drastically reduced	N=C(N)c1ccc(-c2cc3ccc(C(=N)N)cc3[nH]2)cc1 [DAPI, 4′,6-diamidino-2-phenylindole, reference compound]	–	–	–	–	–	–	–	–	–	–	–	–	–	–	–
–	{bis-(2,2′-bpy)-(5-fluoro-1-((4′-methyl-[2,2′-bipyridin]-4-yl)methyl)pyrimidine-2,4(1H,3H)-dione)}ruthenium(II) dichloride [Complex 1]	336	0.048	−0.99 ± 0.05	exactly superimposed with those for ER-Tracker™ Green	1.5	highly water soluble	significantly reduced	−6.68 ± 0.41	−35.5 ± 0.41	–	0.61 ± 0.0	~20	as efficient as DAPI in staining the nucleus	−0.85	–

Reference: US9505794B2, “Ruthenium (II) complexes, preparation and uses thereof” (priority 2014, dated 2016)
